Where “and” joins values, the source holds several entries; their conditions need not be identical. Equal entries are not always repeated.
Assays:
Format in all cases: in vivo
Meloidogyne incognita = assay: Vine field trial, number of nematodes in soil after foliar (I-2) or drench (imidacloprid) application; conditions: for Activity against Meloidogyne incognita, number of nematodes, 0 d: vines Thompson Seedless, prior to treatment, (I-2) SC 240 12.5 fl oz per 605 plants foliar, imidacloprid SC 550 14 fl oz drench; for Activity against Meloidogyne incognita, number of nematodes, 30 d / Activity against Meloidogyne incognita, number of nematodes, 60 d: vines, (I-2) 12.5 fl oz per 605 plants foliar (2 applications, 32 d interval), imidacloprid 14 fl oz drench; for Activity against Meloidogyne incognita, number of nematodes, 30 d: 30 days after first treatment; for Activity against Meloidogyne incognita, number of nematodes, 60 d: 60 days after first treatment
Description: (§1) In 5 replications, in each case 15 vines of the cultivar “Thompson Seedless 1948” are treated against soil-dwelling nematodes using a fogger. Here, a tank mix of the active compound (I-2) (SC 240) is applied after foliar application at the stated application rates with 0.25% of the adjuvant Activator 90, in comparison to imidacloprid (SC 550) after drench application by micro-irrigation injection. The water application rate is 75 gallons per acre=605 plants. Two applications of active compound (I-2) are carried out at an interval of 32 days.
(§2) Evaluation is carried out prior to the treatment and 30 days and 60 days after the first treatment by counting the number of nematodes in 500 g of soil.

Mesocriconema xenoplax = assay: as above; conditions: vines, (I-2) 12.5 fl oz per 605 plants foliar, imidacloprid 14 fl oz drench; for Activity against Mesocriconema xenoplax, number of nematodes, 30 d: 30 days after first treatment; for Activity against Mesocriconema xenoplax, number of nematodes, 60 d: 60 days after first treatment; for Activity against Mesocriconema xenoplax, number of nematodes, 0 d: prior to treatment
Description: as §1, §2

Pratylenchus sp. = assay: as above; conditions: vines, (I-2) 12.5 fl oz per 605 plants foliar, imidacloprid 14 fl oz drench; for Activity against Pratylenchus sp., number of nematodes, 30 d: 30 days after first treatment; for Activity against Pratylenchus sp., number of nematodes, 60 d: 60 days after first treatment; for Activity against Pratylenchus sp., number of nematodes, 0 d: prior to treatment
Description: as §1, §2

[1] = tested on: Tylenchulus semipenetrans; assay: Foliar application of (I-2) to citrus in pots for control of Tylenchulus semipenetrans; conditions: individual trees
Description: Foliar Application of (I-2) to Citrus in Pots for Control of Tylenchulus semipenetrans
Treatments: 15 trees sprayed with (I-2=Movento), 15 trees sprayed with water (presample each pot); 25 mL/tree
Add Tylenchulus semipenetrans larvae to all pots. The following day take trees out of greenhouse. Cover top of pot to exclude spray from soil. (I-2) (SC 240) is sprayed in a concentration of 2.6 ml plus 2.5 ml adjuvant MSO (methylated seed oil), (100% active w/v, added to the spray solution at 0.25% v/v) per liter sprac solution. Spray canopy from two sides of trees to runoff with a 2 gallon “Sure Spray” pump sprayer (Chapin Mfg.) using a nozzle that delivers a cone shape spray pattern. Allow material to dry before returning plants to greenhouse. Repeat in 14 days.
For this citrus nematode trial, 5-year old Volkamer lemon seedlings are infested with T. semipenetrans obtained from the field and maintained in the greenhouse (25-32° C.) for use in pesticide trials. Trees used in the experiment are not treated with nematicidal compounds. The seedlings are growing in a 50:50 mixture of Astatula sand (97% sand) and Pro-mix potting mixture in rectangular pots (10×10×30 cm). Trees are irrigated normally, but receive no fertilizer or pesticide treatments other than (I-2) during the experiment. Effects on citrus nematode are evaluated by soil sampling 30 days and 60 days after treatment.
Tylenchulus semipenetrans raw data (juvenile and male nematodes per […] soil. Pi is initial population before treatment, Pf is final population at one and two months post treatment).

Meloidogyne arenaria = assay: Tomato pot trial, root-knot nematode galling index and eggs per root system; conditions: for Galling index: 78 d after first treatment, mean; for Appearance of root system (galls, egg masses, rot): visual, at harvest
Description: The experiment is carried out in a shade house at a temperature of around 78 F (76-80 F). The experiment is conduced in a complete randomize design with seven treatments and six replications. 6 inch pots are filled with 1,500 g of steam pasteurized (194 F for 2:30 h) field soil per pot and a 4 weeks old tomato cv. Rutgers transplant is added. The soil is an Arredondo fine sand with ca. 92% sand and 1% om. The soil is taken from a site with no history of root-knot nematode infestation.
The first preventive treatments of Vydate CLV and (I-2) (SC 240; adjuvant: Dyne-Amic (a blend of nonionic and organosilicone surfactants and MSO), 99% active w/v, added 0.25% v/v) are applied as foliar spray. Fosthiazate 900 is applied as a soil drench in 40 gallons water per acre. The second preventive application of Vydate and (I-2) are sprayed over foliage 7 days after l^st treatment. The soil is inoculated by adding 5,000 eggs/pot of Meloidogyne arenaria one day after the 2nd treatment. The curative treatments of Vydate and (I-2) are applied as a foliar spray on 21 and 28 days after inoculation with Meloidogyne arenaria.
All (I-2) and Vydate treatments are applied in 40 gallons of water/acre by a CO2 pressurized sprayer with a single 8003 VS TeeJet noozle. The tomato plants for each treatment are lined up in a row with the spray directed over their foliage until noticeable drip.
78 days after the 1st treatment the plants are harvested. Each root system is evaluated for the percentage of root-knot nematode galling and eggs per root system. A 1 to 6 scale is used for estimating the number galls per root system as follows: 1=no galls on the root system; 2=10%; 3=11 to 30%; 4=31 to 70%; 5=71 to 90%; 6=100% root system galled. Following the determination of percentage of galling the roots are processed in a bleach solution to dissolve away the gelatinous matrix surrounding the eggs. Individual eggs are collection on a 500 mesh sieve and poured into a counting dish for determining their numbers.

[2] = preventive treatment, tomato cv. Rutgers, scale 1 to 6 (1 = no galls, 6 = 100% of root system galled)
[3] = preventive treatment, tomato, 5,000 eggs/pot inoculated

Structure (SMILES) | Activity against Meloidogyne incognita, number of nematodes, 0 d (Meloidogyne incognita) | Activity against Meloidogyne incognita, number of nematodes, 30 d (Meloidogyne incognita) | Activity against Meloidogyne incognita, number of nematodes, 60 d (Meloidogyne incognita) | Activity against Mesocriconema xenoplax, number of nematodes, 30 d (Mesocriconema xenoplax) | Activity against Mesocriconema xenoplax, number of nematodes, 60 d (Mesocriconema xenoplax) | Activity against Mesocriconema xenoplax, number of nematodes, 0 d (Mesocriconema xenoplax) | Activity against Pratylenchus sp., number of nematodes, 30 d (Pratylenchus sp.) | Activity against Pratylenchus sp., number of nematodes, 60 d (Pratylenchus sp.) | Activity against Pratylenchus sp., number of nematodes, 0 d (Pratylenchus sp.) | Treat Pi (initial population before treatment) ([1]; Volkamer lemon seedlings in pots, before treatment) | Treat Pf (final population one month post treatment) ([1]; (I-2) SC 240 2.6 ml/l plus MSO foliar, repeated after 14 days, one month post treatment) | Treat Pf2 (final population two months post treatment) ([1]; (I-2) SC 240 2.6 ml/l plus MSO foliar, repeated after 14 days, two months post treatment) | Number of eggs/root system 78 d after first treatment (Meloidogyne arenaria; curative treatment (21 and 28 days after inoculation), tomato) | Galling index (Meloidogyne arenaria; curative treatment (21 and 28 days after inoculation), tomato, scale 1 to 6) | Appearance of root system (galls, egg masses, rot) (Meloidogyne arenaria; curative treatment) | Galling index (Meloidogyne arenaria; [2]) | Number of eggs/root system 78 d after first treatment (Meloidogyne arenaria; [3]) | Appearance of root system (galls, egg masses, rot) (Meloidogyne arenaria; preventive treatment)
CCOC(=O)OC1=C(c2cc(C)ccc2C)C(=O)N[C@]12CC[C@@H](OC)CC2 [(I-2)] | 312 nematodes in 500 g of soil | 140.8 nematodes in 500 g of soil | 178.8 nematodes in 500 g of soil | 861.2 nematodes in 500 g of soil | 942.8 nematodes in 500 g of soil | 1817 nematodes in 500 g of soil | 371.2 nematodes in 500 g of soil | 454 nematodes in 500 g of soil | 826 nematodes in 500 g of soil | 2412.5 juvenile and male nematodes per 100 cm^2 soil and 2100.0 juvenile and male nematodes per 100 cm^2 soil and 1700.0 juvenile and male nematodes per 100 cm^2 soil and 9237.5 juvenile and male nematodes per 100 cm^2 soil and 4180.0 juvenile and male nematodes per 100 cm^2 soil and 400.0 juvenile and male nematodes per 100 cm^2 soil and 4250.0 juvenile and male nematodes per 100 cm^2 soil (2×) and 1625.0 juvenile and male nematodes per 100 cm^2 soil and 125.0 juvenile and male nematodes per 100 cm^2 soil (2×) and 2190.0 juvenile and male nematodes per 100 cm^2 soil and 210.0 juvenile and male nematodes per 100 cm^2 soil and 2490.0 juvenile and male nematodes per 100 cm^2 soil and 250.0 juvenile and male nematodes per 100 cm^2 soil | 168.83 juvenile and male nematodes per 100 cm^2 soil and 519.74 juvenile and 534.25 juvenile and 1440.00 juvenile and 2753.33 juvenile and 336.84 juvenile and 708.33 juvenile and 638.16 juvenile and 87.21 juvenile and 1803.37 juvenile and 1402.78 juvenile and 60.81 juvenile and 1448.86 juvenile and 86.21 juvenile and 54.35 juvenile | 181.82 juvenile and male nematodes per 100 cm^2 soil and 380.95 juvenile and 338.71 juvenile and 1207.55 juvenile and 7807.69 juvenile and 347.46 juvenile and 1908.33 juvenile and 4122.22 juvenile and 175.44 juvenile and 1409.84 juvenile and 3205.36 juvenile and 92.59 juvenile and 1481.13 juvenile and 551.02 juvenile and 531.25 juvenile | 141,000 eggs/root system | 4.5 | little darkening or rotting appearance | 6.0 | 421,600 eggs/root system | numerous egg masses and coalesced galls
CCOP(=O)(SC(C)CC)N1CCSC1=O (stereo not drawn) [Fosthiazate, reference compound] | – | – | – | – | – | – | – | – | – | – | – | – | – | – | – | 5.3 | 453,500 eggs/root system | darkened decaying roots with numerous galls and egg masses
O=[N+]([O-])NC1=NCCN1Cc1ccc(Cl)nc1 [Imidacloprid, reference compound] | 267 nematodes in 500 g of soil | 171 nematodes in 500 g of soil | 188 nematodes in 500 g of soil | 808.4 nematodes in 500 g of soil | 958.46 nematodes in 500 g of soil | 1863 nematodes in 500 g of soil | 320 nematodes in 500 g of soil | 319.6 nematodes in 500 g of soil | 406 nematodes in 500 g of soil | – | – | – | – | – | – | – | – | –

From patent publication US20100311801A1, “USE OF TETRAMIC ACID DERIVATIVES FOR CONTROLLING NEMATODES” (priority 2007, published 2010)
